Data as given in US5409947A, “Cycloheptimidazole derivatives, method of manufacturing the same and therapeutic agents containing these compounds” (Kotobuki Seiyaku Co., Ltd., priority 1992, dated 1995).
Structures can show the parent of a compound that is named as a salt.

Target: T1, angiotensin II receptor (Oryctolagus cuniculus, UniProt P34976)
T1 construct: Rabbit aorta thoracic is isolated; from tissue; host or cells: isolated rabbit thoracic aorta
T1 sequence (P34976 1-359): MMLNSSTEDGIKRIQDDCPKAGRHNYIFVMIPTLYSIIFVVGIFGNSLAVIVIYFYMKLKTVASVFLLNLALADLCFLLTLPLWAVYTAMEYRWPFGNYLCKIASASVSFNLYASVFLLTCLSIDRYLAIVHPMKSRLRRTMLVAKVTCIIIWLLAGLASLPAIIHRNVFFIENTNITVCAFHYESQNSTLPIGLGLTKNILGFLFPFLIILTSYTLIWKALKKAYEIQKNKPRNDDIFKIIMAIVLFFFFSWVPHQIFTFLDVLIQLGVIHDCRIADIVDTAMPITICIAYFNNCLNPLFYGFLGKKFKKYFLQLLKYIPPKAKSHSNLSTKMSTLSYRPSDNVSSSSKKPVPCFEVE
Assay: Angiotensin II receptor antagonistic activity: inhibition of angiotensin II-induced contraction of isolated rabbit thoracic aorta
Format: cell-based
Conditions: isolated rabbit thoracic aorta contracted by angiotensin II, from dose-response curve (Schild); for Kb: read-out: pA2 (converted)
Description: Angiotensin II receptor antagonistic activity experiments are carded out according to P. C. Wong et al. (Hypertension. 15, 823 (1990)).
Rabbit aorta thoracic is isolated, contracted by angiotensin II. The inhibition of contraction by the compound (1) is expressed as pA2 from dose-response curve (Schild, Brit. J. Pharmacol. 14, 48 (1959)).

Compound	Kb [nM]	pA2
CCCCc1nc2c(n1Cc1ccc(-c3ccccc3-c3nn[nH]n3)cc1)CCCCC2 [Compound 11, 5-[2-(4-(2-Butyl-1,4,5,6,7,8-hexahydro-1-cycloheptimidazolyl)methylbiphenylyl)]tetrazole]	20	
Cc1nc2c(n1Cc1ccc(-c3ccccc3-c3nn[nH]n3)cc1)C(=O)CCCC2 [Compound 15, 5-[2-(4-(2-Methyl-8-oxo-5,6,7,8-tetrahydro-1-cycloheptimidazolyl)methylbiphenylyl)]tetrazole]	5.01	
CCCc1nc2c(n1Cc1ccc(-c3ccccc3-c3nnn[nH]3)cc1)C(=O)CCCC2 [Compound 17, 5-[2-(4-(2-Propyl-8-oxo-5,6,7,8-tetrahydro-1-cycloheptimidazolyl)methylbiphenylyl)]tetrazole]	0.126	
CC(C)c1nc2c(n1Cc1ccc(-c3ccccc3-c3nn[nH]n3)cc1)C(=O)CCCC2 [Compound 24]	1.78	
CC(C)Cc1nc2c(n1Cc1ccc(-c3ccccc3-c3nn[nH]n3)cc1)C(=O)CCCC2 [Compound 25]	0.851	
CCCCc1nc2c(n1Cc1ccc(-c3ccccc3-c3nn[nH]n3)cc1)C(O)CCCC2 (centres unmarked) [Compound 26, 5-[2-(4-(2-Butyl-8-hydroxy-1,4,5,6,7,8-hexahydro-1-cycloheptimidazolyl)methylbiphenylyl)]tetrazole]	9.77	
CCCCc1nc2c(n1Cc1ccc(-c3ccccc3-c3nn[nH]n3)cc1)CCCCC2O (centres unmarked) [Compound 27, 5-[2-(4-(2-Butyl-4-hydroxy-1,4,5,6,7,8-hexahydro-1-cycloheptimidazolyl)methylbiphenylyl)]tetrazole]	63.1	

Results, then the molecule that gave them:

Kb [nM]	pA2	Compound
0.316		CCCCc1nc2c(n1Cc1ccc(-c3ccccc3-c3nn[nH]n3)cc1)C(=O)CCCC2 [18 - K salt]
	7.95	Cc1nc2ccccc(=O)c2n1Cc1ccc(-c2ccccc2-c2nn[nH]n2)cc1 [Compound 1, 5-[2-(4-(2-Methyl-8-oxo-1(8H)-cycloheptimidazolyl)methylbiphenylyl)]tetrazole]
2		CCc1nc2ccccc(=O)c2n1Cc1ccc(-c2ccccc2-c2nn[nH]n2)cc1 [Compound 2, 5-[2-(4-(2-Ethyl-8-oxo-1(8H)-cycloheptimidazolyl)methylbiphenylyl)]tetrazole]
0.331		CCCc1nc2ccccc(=O)c2n1Cc1ccc(-c2ccccc2-c2nn[nH]n2)cc1 [Compound 3, 5-[2-(4-(2-Propyl-8-oxo-1(8H)-cycloheptimidazolyl)methylbiphenylyl)]tetrazole]
0.501		CCCCc1nc2ccccc(=O)c2n1Cc1ccc(-c2ccccc2-c2nn[nH]n2)cc1 [Compound 4, 5-[2-(4-(2-Butyl-8-oxo-1(8H )-cycloheptimidazolyl)methylbiphenylyl)]tetrazole]
7.59		CC(C)c1nc2ccccc(=O)c2n1Cc1ccc(-c2ccccc2-c2nn[nH]n2)cc1 [Compound 9, 5-[2-(4-(2-Isopropyl-8-oxo-1(8H)-cycloheptimidazolyl)methylbiphenylyl)]tetrazole]
1		CCc1nc2c(n1Cc1ccc(-c3ccccc3-c3nn[nH]n3)cc1)C(=O)CCCC2 [Compound 16, 5-[2-(4-(2-Ethyl-8-oxo-5,6,7,8-tetrahydro-1-cycloheptimidazolyl)methylbiphenylyl)]tetrazole]
0.501		CCCCc1nc2c(n1Cc1ccc(-c3ccccc3-c3nn[nH]n3)cc1)C(=O)CCCC2 [Compound 18, 5-[2-(4-(2-Butyl-8-oxo-5,6,7,8-tetrahydro-1-cycloheptimidazolyl)methylbiphenylyl)]tetrazole]
0.398		CCCCCc1nc2c(n1Cc1ccc(-c3ccccc3-c3nn[nH]n3)cc1)C(=O)CCCC2 [Compound 19, 5-[2-(4-(2-Pentyl-8-oxo-5,6,7,8-tetrahydro-1-cycloheptimidazolyl)methylbiphenylyl)]tetrazole]
63.1		CCCCc1nc2c(n1Cc1ccc(-c3ccccc3-c3nn[nH]n3)cc1)CCCCC2=O [Compound 20, 5-[2-(4-(2-Butyl-4-oxo-5,6,7,8-tetrahydro-1-cycloheptimidazolyl)methylbiphenylyl)]tetrazole]
